Source: the supplement of paper PMC4862054

Key:
Conditions in all cases: incubation time: 72 h
[1] = tested on: MFM-223; assay: normalised viability (% of control), CellTiter-Blue; higher = more viable cells (100 = DMSO, 0 = benzethonium chloride kill control)
Outline: (§1)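 Each entry is normalised viability at a single listed concentration within a series. It comes from breast cancer cell lines incubated 72 h with compound in 384-well plates, then measured with CellTiter-Blue fluorescence at 560/590 nm. Every plate was normalised between vehicle (100) and a positive kill control (0).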

[2] = tested on: HCC1599; assay: as above
Outline: as §1

[3] = tested on: MDA-MB-468; assay: as above
Outline: as §1

[4] = tested on: SK-BR-3; assay: as above
Outline: as §1

[5] = tested on: HCC1937; assay: as above
Outline: as §1

[6] = tested on: CAL-51; assay: as above
Outline: as §1

[7] = tested on: Hs578T; assay: as above
Outline: as §1

[8] = tested on: BT-549; assay: as above
Outline: as §1

[9] = tested on: CAL-120; assay: as above
Outline: as §1

[10] = tested on: MDA-MB-453; assay: as above
Outline: as §1

[11] = tested on: CAL-148; assay: as above
Outline: as §1

[12] = tested on: CAL-85-1; assay: as above
Outline: as §1

[13] = tested on: BT-474; assay: as above
Outline: as §1

[14] = tested on: MDA-MB-231; assay: as above
Outline: as §1

[15] = tested on: HCC1143; assay: as above
Outline: as §1

[16] = tested on: DU-4475; assay: as above
Outline: as §1

[17] = tested on: MDA-MB-436; assay: as above
Outline: as §1

[18] = tested on: HDQ-P1; assay: as above
Outline: as §1

[19] = tested on: MFM-223; assay: normalised response (% of control), CellTiter-Glo; higher = more viable cells (100 = DMSO, 0 = benzethonium chloride kill control)
Outline: (§2)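 Each entry is the normalised signal at a single concentration within a series. The series comprised 5 concentrations in 10-fold steps over a compound-specific 10,000-fold range, placed in 384-well plates into which breast cancer cell lines were seeded as 20 µl suspension and incubated 72 h. CellTox Green (485/520 nm) fluorescence and then CellTiter-Glo luminescence were read, with signals normalised per plate to 0.1 % DMSO (100) and a positive kill control (0).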

[20] = tested on: HCC1599; assay: as above
Outline: as §2

[21] = tested on: MDA-MB-468; assay: as above
Outline: as §2

[22] = tested on: SK-BR-3; assay: as above
Outline: as §2

[23] = tested on: HCC1937; assay: as above
Outline: as §2

[24] = tested on: CAL-51; assay: as above
Outline: as §2

[25] = tested on: MCF-10A; assay: as above
Outline: as §2

[26] = tested on: Hs578T; assay: as above
Outline: as §2

[27] = tested on: BT-549; assay: as above
Outline: as §2

[28] = tested on: CAL-120; assay: as above
Outline: as §2

[29] = tested on: MDA-MB-453; assay: as above
Outline: as §2

[30] = tested on: CAL-148; assay: as above
Outline: as §2

[31] = tested on: CAL-85-1; assay: as above
Outline: as §2

[32] = tested on: BT-474; assay: as above
Outline: as §2

[33] = tested on: MDA-MB-231; assay: as above
Outline: as §2

[34] = tested on: HCC1143; assay: as above
Outline: as §2

[35] = tested on: DU-4475; assay: as above
Outline: as §2

[36] = tested on: MDA-MB-436; assay: as above
Outline: as §2

[37] = tested on: HDQ-P1; assay: as above
Outline: as §2

In the case of `CCOc1cc2ncc(C#N)c(Nc3ccc(OCc4ccccn4)c(Cl)c3)c2cc1NC(=O)/C=C/CN(C)C` [Neratinib] (0.1 nM), the normalised viability [1] was 99.2%, the normalised viability [2] was 104% and the normalised viability [3] was 100%. It also gave a normalised viability [4] of 99.8%, a normalised viability [5] of 82.6% and a normalised viability [6] of 91.5%. For the same molecule, the normalised viability [7] was 99.7%, the normalised viability [8] was 105% and the normalised viability [9] was 86%. It also gave a normalised viability [10] of 105%, a normalised viability [11] of 96.7% and a normalised viability [12] of 83%. It also gave a normalised viability [13] of 97.3%, a normalised viability [14] of 99.6% and a normalised viability [15] of 103%. For the same molecule, the normalised viability [16] was 107%, the normalised viability [17] was 123% and the normalised viability [18] was 86.8%. The normalised response [19] was 108%, the normalised response [20] was 96.6% and the normalised response [21] was 105%. For the same molecule, the normalised response [22] was 101%, the normalised response [23] was 97.8% and the normalised response [24] was 89%. For the same molecule, the normalised response [25] was 104%, the normalised response [26] was 106% and the normalised response [27] was 103%. The normalised response [28] was 98.4%, the normalised response [29] was 117% and the normalised response [30] was 105%. For the same molecule, the normalised response [31] was 97.2%, the normalised response [32] was 105% and the normalised response [33] was 98.3%. For the same molecule, the normalised response [34] was 100%, the normalised response [35] was 98.5% and the normalised response [36] was 94.8%. For the same molecule, the normalised response [37] was 102%.

For `COc1ncc(-c2ccc3nccc(-c4ccnnc4)c3c2)cc1NS(=O)(=O)c1ccc(F)cc1F` (0.1 nM), the normalised viability [1] was 91.4%, the normalised viability [2] was 83.8% and the normalised viability [3] was 101%. For the same molecule, the normalised viability [4] was 86.9%, the normalised viability [5] was 100% and the normalised viability [6] was 93.7%. For the same molecule, the normalised viability [7] was 112%, the normalised viability [8] was 108% and the normalised viability [9] was 81%. It also gave a normalised viability [10] of 94.3%, a normalised viability [11] of 99.6% and a normalised viability [12] of 90.2%. For the same molecule, the normalised viability [13] was 115%, the normalised viability [14] was 92% and the normalised viability [15] was 89.1%. For the same molecule, the normalised viability [16] was 108%, the normalised viability [17] was 113% and the normalised viability [18] was 103%. The normalised response [19] was 111%, the normalised response [20] was 92.1% and the normalised response [21] was 100%. It also gave a normalised response [22] of 108%, a normalised response [23] of 98.2% and a normalised response [24] of 112%. It also gave a normalised response [25] of 120%, a normalised response [26] of 103% and a normalised response [27] of 101%. It also gave a normalised response [28] of 98.4%, a normalised response [29] of 125% and a normalised response [30] of 97.9%. For the same molecule, the normalised response [31] was 98.1%, the normalised response [32] was 101% and the normalised response [33] was 104%. The normalised response [34] was 106%, the normalised response [35] was 99.8% and the normalised response [36] was 97.7%. It also gave a normalised response [37] of 99.8%.

`COC(=O)C[C@](O)(CCCC(C)(C)O)C(=O)O[C@@H]1C(OC)=C[C@]23CCCN2CCc2cc4c(cc2[C@H]13)OCO4` [Omacetaxine] (1 nM) gave a normalised viability [1] of 90.3%, a normalised viability [2] of 78.4% and a normalised viability [3] of 95.2%. The normalised viability [4] was 97.3%, the normalised viability [5] was 96.5% and the normalised viability [6] was 96.3%. For the same molecule, the normalised viability [7] was 106%, the normalised viability [8] was 95.4% and the normalised viability [9] was 82%. For the same molecule, the normalised viability [10] was 91.6%, the normalised viability [11] was 107% and the normalised viability [12] was 90.6%. It also gave a normalised viability [13] of 101%, a normalised viability [14] of 97.3% and a normalised viability [15] of 91.7%. For the same molecule, the normalised viability [16] was 93.6%, the normalised viability [17] was 91.1% and the normalised viability [18] was 84.7%. It also gave a normalised response [19] of 103%, a normalised response [20] of 88.4% and a normalised response [21] of 108%. For the same molecule, the normalised response [22] was 108%, the normalised response [23] was 98.3% and the normalised response [24] was 79.9%. The normalised response [25] was 108%, the normalised response [26] was 101% and the normalised response [27] was 92.1%. For the same molecule, the normalised response [28] was 99.8%, the normalised response [29] was 121% and the normalised response [30] was 110%. The normalised response [31] was 101%, the normalised response [32] was 106% and the normalised response [33] was 104%. For the same molecule, the normalised response [34] was 109%, the normalised response [35] was 96% and the normalised response [36] was 97.1%. The normalised response [37] was 104%.

With `COc1ccc(C2=N[C@@H](c3ccc(Cl)cc3)[C@@H](c3ccc(Cl)cc3)N2C(=O)N2CCNC(=O)C2)c(OC(C)C)c1` [Nutlin-3] (1 nM) the normalised viability [1] was 89.4%, the normalised viability [2] was 91.6% and the normalised viability [3] was 92.8%. The normalised viability [4] was 95.6%, the normalised viability [5] was 71.5% and the normalised viability [6] was 96.3%. The normalised viability [7] was 95.9%, the normalised viability [8] was 107% and the normalised viability [9] was 78.7%. The normalised viability [10] was 102%, the normalised viability [11] was 104% and the normalised viability [12] was 90.5%. The normalised viability [13] was 110%, the normalised viability [14] was 101% and the normalised viability [15] was 89.8%. The normalised viability [16] was 82.5%, the normalised viability [17] was 101% and the normalised viability [18] was 89%. For the same molecule, the normalised response [19] was 101%, the normalised response [20] was 104% and the normalised response [21] was 98.6%. The normalised response [22] was 106%, the normalised response [23] was 103% and the normalised response [24] was 84.8%. The normalised response [25] was 101%, the normalised response [26] was 103% and the normalised response [27] was 97.7%. For the same molecule, the normalised response [28] was 94.6%, the normalised response [29] was 114% and the normalised response [30] was 115%. The normalised response [31] was 102%, the normalised response [32] was 99.8% and the normalised response [33] was 105%. The normalised response [34] was 103%, the normalised response [35] was 106% and the normalised response [36] was 119%. The normalised response [37] was 105%.
